Format in all cases: in vivo, rat
The test system of one series is latency to feed in rats. In words: Novelty suppressed feeding model (NSF). On the procedure:
(§1) Anticonvulsant effect of compounds was evaluated in two models of epileptic seizures in immature rats (PTZ model and 6 Hz model). PTZ convulsions were tested in 12- and 25-day-old rats, 6 Hz-induced seizures in 15- and 25-day-old rats. Young adult rats (P60) were also used in either test. Day of birth was taken as P0. Experiments evaluating precognitive effect were performed in adult male rats of the Wistar and Long Evans strain (3 months old, b.w. 300-400 g). All animals were obtained from a breeding facility of Institute of Physiology CAS (certificate No. 1396/2014-MZE-17214) Animals were held in standard conditions (21±1° C., humidity 50-60%, light regime 12/12) with unrestricted access to food and water. All manipulations with animals were performed according to the https://nc3rs.org.uk/arrive-guidelines and to Czech Animal Protection Law 246/1992 Sb. And international directives (EU Directive 2010/63/EU for animals' experiments).
Behavioral models of the affective disorders are based on exposure to stress. Two behavioral tests were performed: the Elevated plus maze test (EPM, Nat. Protoc. 2007, 2, 322) and the Novelty suppressed feeding model (NSF, Interdiscip. Toxicol. 2017, 10, 40).
In the NSF test, the Compound from Example 1 was administered i.p. 30 min before the test at doses 0.1; 0.3; 1; 3 and 10 mg/kg.

For series [1], the system named is anxiety parameters in rats. In words: Elevated plus maze test (EPM). Particulars: 10 mg/kg i.p., 30 minutes before maze testing. How it is done:
as §1
Behavioral models of the affective disorders are based on exposure to stress. […]
In the EPM test, the Compound from Example 1 was administered at doses of 1, 3 and 10 mg/kg, i.p. 30 minutes before maze testing. Time spent in open arms, closed arms, and central platform were recorded during a 10-min test session.

In series [2] the test system is PTZ-induced seizures in 12- and 25-day-old rats. In words: PTZ-induced generalized tonic-clonic seizures in immature rats. On the procedure: as §1
Two age groups of immature male Wistar rats were used in either experiment. In PTZ model P12 corresponding by a maturation of the brain to early postnatal human babies, i.e. to the period where children epileptic encephalopathy mostly resistant to present pharmacotherapy start to appear. The other group—P25 animals corresponds with school-age children. Generalized tonic-clonic seizures were elicited by a subcutaneous injection of PTZ in a dose of 100 mg/kg. The 6 Hz model was tested in P15 (at this age eyes are open and it is not necessary to surgically distract lids). Biphasic pulses with […] were applied transcorneally for 3 s by a constant current stimulator of Ugo Basile company. PTZ induced generalized seizures represent a model of human generalized tonic-clonic seizures, seizures elicited by 6 Hz stimulation are generally taken as a model of temporal (psychomotor, complex partial) seizures. Differences in latencies and seizure severity were evaluated by ANOVA with a subsequent pairwise comparison by Holm-Sidak test. Incidence of seizures were evaluated by Fischer exact test. Critical p value was set at p=0.05.
Anticonvulsant effect was studied in 12- and 25-day-old male Wistar rats. Steroid derivatives were administered at doses of 1, 5 and 10 mg/kg i.p. 20 min before the administration of PTZ (100 mg/kg s.c.).

The subject of series [3] is generalized tonic-clonic seizures in adult rats. In words: seizures in young adult (P60) rats, FIGS. 6A-6C. How it is done: FIGS. 6A-6C show anticonvulsant effect of a substance from Example 1 in a model of seizures elicited by 6 Hz transcorneal electrical stimulation in young adult (P60) male rats. Steroid substance in dose 1, 5, or 10 mg/kg i.p. (x-axis) was administered 20 min before the first stimulation. Graph 6A (y-axis in %)—incidence of complete (GTCS) and incomplete, i.e. without the tonic phase (GCS) generalized seizures; graph 6B (y-axis in %)—incidence of minimal clonic seizures; graph 6C (y-axis in s)—latencies of generalized seizures.
as §1
GTCS were present in only one rat after the 10-mg/kg dose.

In a further series the test system is memory in rats. In words: Passive avoidance test, intact animals and dizocilpine (MK-801) schizophrenia-like behavior. On the procedure: as §1
Schizophrenia-like behavior was induced by i.p. administration of dizocilpine (MK-801) at a dose of 0.1 mg/kg. The effect of the Compound from Example 1 was tested in Passive avoidance test (Psychopharmacology (Berl). 2016, 233, 2077). This test allows to study memory and learning ability. The Compound from Example 1 was applied for 30 min i.p. before the task in doses of 0.1; 1 and 3 mg/kg.

The structures appear in SMILES notation.

With `CC(=O)[C@H]1CC[C@H]2[C@@H]3CC[C@@H]4C[C@H](OC(=O)C5CCC(=O)N5)CC[C@]4(C)[C@H]3CC[C@]12C` (stereo partly drawn) [Example 1, (3R,5R,8R,9S,10S,13S,14S,17S)-17-Acetyl-10,13-dimethylhexadecahydro-1H-cyclopenta[a]fenantren-3-yl 5-oxopyrrolidine-2-carboxylate], the “latency to feed (anxiolytic parameter)” value in the series with latency to feed in rats (0.3 mg/kg i.p., 30 min before the test) is on record as “significant decrease in latency to feed”. In the series on latency to feed in rats (1 and 3 mg/kg i.p.), the “latency of feed intake” value is on record as “trend to decrease the latency of feed intake”. Besides, the anxiety parameters entry in series [1] is “significant reduction of anxiety parameters”. For the same compound, the “seizure severity (5-point scale)” value in series [2] (P12 and P25 rats, 1, 5, 10 mg/kg i.p.) is “copied the presence of GTCS”. The “tonic phase of GTCS” value in series [2] (P12 rats, 1 mg/kg i.p.) is listed as “suppressed the tonic phase of GTCS”. In addition, the incidence of seizures result in series [2] (P12 rats, 5 mg/kg i.p.) is listed as “significantly decrease the incidence of seizures”. Also, in series [2] (P12 rats, 10 mg/kg i.p.), the incidence of seizures result is reported as “completely suppressed the seizures”. Besides, the “latencies to GTCS” value in series [2] (P12 rats, 1 and 5 mg/kg i.p.) is “significantly prolonged”. The latencies of seizures entry in series [2] (P25 rats, 1 mg/kg i.p.) was “not changed”. For the same compound, in series [2] (P25 rats, 5 and 10 mg/kg i.p.), the animals with seizures entry is listed as “one animal only” and the “incidence of GTCS” value is “decrease the incidence of GTCS without a selective effect against the tonic phase”. In addition, the “latency to GTCS” value in series [3] (5 mg/kg i.p.) is reported as “significantly decreased”. For the same compound, in series [3] (10 mg/kg i.p.), the “animals with GTCS” value was “only one rat”, the “incidence of generalized tonic-clonic seizures (GTCS)” value is “significantly decreased the incidence” and the minimal clonic seizures entry was “remained unaffected”. The seizure severity entry in series [3] (5 and 10 mg/kg i.p.) is reported as “significantly decreased”. The “memory damage measured 1 h after the stimulus” value in the series on memory in rats (dizocilpine 0.1 mg/kg, compound 0.1 mg/kg i.p.) is reported as “prevented memory damage”. In the series on memory in rats (intact animals, 0.1, 1 and 3 mg/kg i.p.), the “memory one hour after the aversive stimulus” value is reported as “does not impair memory”.

(Values after patent US20220162257A1, “3ALPHA, 5BETA-NEUROACTIVE STEROIDS FOR THE TREATMENT OF EPILEPSY AND SEIZURE DISEASES” (USTAV ORGANICKE CHEMIE A BIOCHEMIE AV CR, V. V. I., priority 2019, published 2022).)
